How the values were obtained:
Assay type in all cases: cell-based
human TLR8 = target: T1, human TLR8 (Homo sapiens, UniProt Q9NR97); test: TLR8 inhibition reporter assay (HEK-Blue cells, SEAP reporter, R848 stimulation); conditions: HEK-Blue cells overexpressing human TLR8, SEAP reporter, R848 15.9 μM
T1 construct: host or cells: HEK-Blue cells (HEK293-derived reporter line)
T1 sequence (Q9NR97 27-1041): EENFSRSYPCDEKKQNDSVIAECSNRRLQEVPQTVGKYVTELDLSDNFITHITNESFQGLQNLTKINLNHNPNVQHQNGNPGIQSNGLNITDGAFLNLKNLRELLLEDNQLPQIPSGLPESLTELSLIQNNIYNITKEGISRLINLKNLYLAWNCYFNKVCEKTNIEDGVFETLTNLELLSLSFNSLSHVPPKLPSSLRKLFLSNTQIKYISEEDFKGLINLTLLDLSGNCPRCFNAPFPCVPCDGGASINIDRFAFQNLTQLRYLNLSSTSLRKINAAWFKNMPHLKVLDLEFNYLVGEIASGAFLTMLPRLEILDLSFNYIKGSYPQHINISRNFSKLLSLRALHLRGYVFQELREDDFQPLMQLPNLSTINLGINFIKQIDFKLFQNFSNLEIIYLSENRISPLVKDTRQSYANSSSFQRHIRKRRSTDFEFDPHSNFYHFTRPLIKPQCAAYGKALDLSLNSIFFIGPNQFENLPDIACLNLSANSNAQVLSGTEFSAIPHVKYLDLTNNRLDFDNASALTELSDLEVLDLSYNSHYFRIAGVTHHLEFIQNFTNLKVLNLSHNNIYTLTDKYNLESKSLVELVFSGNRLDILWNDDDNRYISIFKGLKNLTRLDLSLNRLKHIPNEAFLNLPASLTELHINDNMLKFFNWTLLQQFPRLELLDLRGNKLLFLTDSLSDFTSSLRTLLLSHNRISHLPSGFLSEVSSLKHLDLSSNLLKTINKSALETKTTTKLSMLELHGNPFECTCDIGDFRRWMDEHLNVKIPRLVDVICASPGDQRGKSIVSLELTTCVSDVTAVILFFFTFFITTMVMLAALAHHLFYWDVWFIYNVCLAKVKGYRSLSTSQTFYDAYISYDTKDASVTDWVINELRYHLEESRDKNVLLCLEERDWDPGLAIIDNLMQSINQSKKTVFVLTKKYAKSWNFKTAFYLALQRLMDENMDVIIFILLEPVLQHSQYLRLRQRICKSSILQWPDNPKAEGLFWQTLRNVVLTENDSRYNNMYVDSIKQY
Summary of the method: (§1)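 Agonists (final): TLR7 gardiquimod 7.5 μM; TLR8 R848 15.9 μM; TLR9 ODN2006 5 nM. HEK-Blue reporter cells, 30 min RT compound pre-incubation, 0.05 nM–50 μM dose range, 22 h at 37 °C, colorimetric SEAP detection medium. % inhibition relative to agonist+DMSO and known-inhibitor wells.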

human TLR7 = target: T2, human TLR7 (Homo sapiens, UniProt Q9NYK1); test: TLR7 inhibition reporter assay (HEK-Blue cells, SEAP reporter, gardiquimod stimulation); conditions: HEK-Blue cells overexpressing human TLR7, SEAP reporter, gardiquimod 7.5 μM
T2 construct: host or cells: HEK-Blue cells (HEK293-derived reporter line)
T2 sequence (Q9NYK1 27-1049): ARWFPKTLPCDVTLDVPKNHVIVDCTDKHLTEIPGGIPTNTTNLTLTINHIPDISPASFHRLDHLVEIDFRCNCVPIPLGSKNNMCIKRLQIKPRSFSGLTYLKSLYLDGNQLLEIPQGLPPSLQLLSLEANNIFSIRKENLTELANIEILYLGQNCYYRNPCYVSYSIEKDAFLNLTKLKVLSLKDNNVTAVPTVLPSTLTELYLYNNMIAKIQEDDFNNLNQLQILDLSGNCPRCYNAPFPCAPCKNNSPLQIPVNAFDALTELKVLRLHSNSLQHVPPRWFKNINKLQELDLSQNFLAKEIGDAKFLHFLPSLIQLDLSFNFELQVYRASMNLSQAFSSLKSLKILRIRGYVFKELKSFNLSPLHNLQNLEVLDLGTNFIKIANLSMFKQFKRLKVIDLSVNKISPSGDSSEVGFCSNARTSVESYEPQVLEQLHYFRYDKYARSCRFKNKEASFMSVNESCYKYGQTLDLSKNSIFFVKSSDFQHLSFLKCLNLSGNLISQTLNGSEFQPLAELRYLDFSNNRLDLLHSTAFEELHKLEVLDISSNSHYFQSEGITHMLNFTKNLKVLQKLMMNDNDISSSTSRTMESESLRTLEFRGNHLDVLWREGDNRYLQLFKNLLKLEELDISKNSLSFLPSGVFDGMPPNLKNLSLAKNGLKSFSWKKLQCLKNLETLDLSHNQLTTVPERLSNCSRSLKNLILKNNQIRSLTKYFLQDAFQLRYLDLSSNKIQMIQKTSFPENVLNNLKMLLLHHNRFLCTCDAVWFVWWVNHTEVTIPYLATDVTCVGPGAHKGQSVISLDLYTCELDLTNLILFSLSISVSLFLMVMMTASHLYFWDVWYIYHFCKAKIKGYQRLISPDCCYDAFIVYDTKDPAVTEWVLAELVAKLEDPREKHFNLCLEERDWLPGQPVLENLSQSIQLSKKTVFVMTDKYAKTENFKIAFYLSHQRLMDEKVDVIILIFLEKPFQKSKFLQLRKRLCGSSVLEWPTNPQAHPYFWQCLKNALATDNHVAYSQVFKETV
Summary of the method: as §1

human TLR9 = target: T3, human TLR9 (Homo sapiens, UniProt Q9NR96); test: TLR9 inhibition reporter assay (HEK-Blue cells, SEAP reporter, ODN2006 stimulation); conditions: HEK-Blue cells overexpressing human TLR9, SEAP reporter, ODN2006 5 nM
T3 construct: host or cells: HEK-Blue cells (HEK293-derived reporter line)
T3 sequence (Q9NR96 26-1032): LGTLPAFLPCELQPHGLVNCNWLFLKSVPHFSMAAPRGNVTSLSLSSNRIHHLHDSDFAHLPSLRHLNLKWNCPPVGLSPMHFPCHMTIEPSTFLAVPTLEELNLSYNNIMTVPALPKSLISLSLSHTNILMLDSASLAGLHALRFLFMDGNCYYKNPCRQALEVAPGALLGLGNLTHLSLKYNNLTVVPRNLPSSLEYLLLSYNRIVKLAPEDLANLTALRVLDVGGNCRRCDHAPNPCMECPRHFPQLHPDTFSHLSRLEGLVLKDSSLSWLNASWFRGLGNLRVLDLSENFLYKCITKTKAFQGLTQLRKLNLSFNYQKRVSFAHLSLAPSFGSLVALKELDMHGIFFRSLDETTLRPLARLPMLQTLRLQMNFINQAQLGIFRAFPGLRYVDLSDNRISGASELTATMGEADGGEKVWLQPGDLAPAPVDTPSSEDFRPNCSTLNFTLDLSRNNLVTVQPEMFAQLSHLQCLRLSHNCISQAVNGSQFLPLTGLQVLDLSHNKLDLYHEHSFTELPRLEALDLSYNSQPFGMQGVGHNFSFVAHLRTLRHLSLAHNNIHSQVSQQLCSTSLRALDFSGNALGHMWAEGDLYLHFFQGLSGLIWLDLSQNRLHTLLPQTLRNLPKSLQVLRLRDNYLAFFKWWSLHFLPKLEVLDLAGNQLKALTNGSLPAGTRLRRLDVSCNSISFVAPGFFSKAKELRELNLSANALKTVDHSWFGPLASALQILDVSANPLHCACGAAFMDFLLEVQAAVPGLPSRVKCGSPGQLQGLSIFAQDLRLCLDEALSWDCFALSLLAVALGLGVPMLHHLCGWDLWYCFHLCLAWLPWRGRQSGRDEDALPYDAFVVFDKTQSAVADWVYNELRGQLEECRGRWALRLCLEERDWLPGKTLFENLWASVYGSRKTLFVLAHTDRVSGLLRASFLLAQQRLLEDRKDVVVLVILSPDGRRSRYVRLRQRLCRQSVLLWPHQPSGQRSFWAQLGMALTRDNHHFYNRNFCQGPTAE
Summary of the method: as §1

| IC50 (human TLR8) [µM] | IC50 (human TLR7) [µM] | IC50 (human TLR9) [µM] | SMILES |
| --- | --- | --- | --- |
| 0.1 to 1 | < 0.1 | 1 to 50 | CNC(=O)CN1CCC(c2ccc3[nH]c(-c4cc(C)n5nc(C)cc5c4)c(C(C)C)c3c2)CC1 [Example 419, 2-(4-(2-(2,7-dimethylpyrazolo[1,5-a]pyridin-5-yl)-3-isopropyl-1H-indol-5-yl)piperidin-1-yl)-N-methylacetamide] |
| 0.1 to 1 | 0.1 to 1 | 0.1 to 1 | Cc1cc(-c2[nH]c3ccc(C4CCNCC4)cc3c2C(C)C)cc2[nH]c(=O)oc12 [Example 91, 5-(3-isopropyl-5-(piperidin-4-yl)-1H-indol-2-yl)-7-methylbenzo[d]oxazol-2(3H)-one] |
| 0.1 to 1 | 0.1 to 1 | 1 to 50 | CC(C)c1c(-c2ccnc3[nH]ncc23)[nH]c2ccc(C3CCN(CC4CCN(C(C)C)CC4)CC3)c(F)c12 [Example 967, 4-(4-fluoro-3-isopropyl-5-(1-((1-isopropylpiperidin-4-yl)methyl)piperidin-4-yl)-1H-indol-2-yl)-1H-pyrazolo[3,4-b]pyridine] |
| < 0.1 | < 0.1 | 0.1 to 1 | CCc1c(-c2ccnc3[nH]ncc23)[nH]c2ccc(C3CCN(CCN)CC3)cc12 [Example 656, 2-(4-(3-ethyl-2-(1H-pyrazolo[3,4-b]pyridin-4-yl)-1H-indol-5-yl)piperidin-1-yl)ethan-1-amine] |
| 0.1 to 1 | < 0.1 | 1 to 50 | CN(C)C(=O)CN1CCC(c2ccc3[nH]c(-c4cc(F)c5nccn5c4)c(CC(F)F)c3c2)CC1 [Example 409, 2-(4-(3-(2,2-difluoroethyl)-2-(8-fluoroimidazo[1,2-a]pyridin-6-yl)-1H-indol-5-yl)piperidin-1-yl)-N,N-dimethylacetamide] |
| 1 to 50 | 0.1 to 1 | 1 to 50 | Cc1nc2cc(-c3[nH]c4ccc(C5CCN(C(=O)CN(C)C)CC5)cc4c3C(C)C)cc(C)c2o1 [Example 491, 2-(dimethylamino)-1-(4-(2-(2,7-dimethylbenzo[d]oxazol-5-yl)-3-isopropyl-1H-indol-5-yl)piperidin-1-yl)ethan-1-one] |
| < 0.1 | < 0.1 | 1 to 50 | Cc1c(-c2[nH]c3ccc(C4CCN(C(=O)CCN5CCOCC5)CC4)cc3c2C(C)C)cn2nnnc2c1C [Example 619, 1-(4-(2-(7,8-dimethyltetrazolo[1,5-a]pyridin-6-yl)-3-isopropyl-1H-indol-5-yl)piperidin-1-yl)-3-morpholinopropan-1-one] |
| 0.1 to 1 | < 0.1 | > 50 | Cc1nn2ccc(-c3[nH]c4ccc(C5CCNCC5)cc4c3C(C)C)cc2c1F [Example 146, 3-fluoro-5-(3-isopropyl-5-(piperidin-4-yl)-1H-indol-2-yl)-2-methylpyrazolo[1,5-a]pyridine] |
| < 0.1 | < 0.1 | 1 to 50 | CC(C)c1c(-c2nc3ccnn3cc2F)[nH]c2ccc(C3CCNCC3)cc12 [Example 147, 6-fluoro-5-(3-isopropyl-5-(piperidin-4-yl)-1H-indol-2-yl)pyrazolo[1,5-a]pyrimidine] |
| < 0.1 | < 0.1 | 0.1 to 1 | CC(C)c1c(-c2ccnc3[nH]ncc23)[nH]c2ccc(C3CCN(C(=O)CN4CC[C@H](N(C)C)C4)CC3)cc12 [Example 590, (S)-2-(3-(dimethylamino)pyrrolidin-1-yl)-1-(4-(3-isopropyl-2-(1H-pyrazolo [3,4-b]pyridin-4-yl)-1H-indol-5-yl)piperidin-1-yl)ethan-1-one] |
| > 3.13 | < 0.1 | 1 to 50 | Cc1nc2cc(-c3[nH]c4ccc(C5CCN(C(=O)CC(C)(C)O)CC5)cc4c3C(C)C)ccn2n1 [Example 601, 3-hydroxy-1-(4-(3-isopropyl-2-(2-methyl-[1,2,4]triazolo[1,5-a]pyridin-7-yl)-1H-indol-5-yl)piperidin-1-yl)-3-methylbutan-1-one] |
| < 0.1 | < 0.1 | 1 to 50 | Cc1ccc(-c2[nH]c3ccc(C4CCN(CC(=O)N(C)C)CC4)cc3c2C(C)C)c2ncnn12 [Example 385, 2-(4-(3-isopropyl-2-(5-methyl-[1,2,4]triazolo[1,5-a]pyridin-8-yl)-1H-indol-5-yl)piperidin-1-yl)-N,N-dimethylacetamide] |
| < 0.1 | < 0.1 | 1 to 50 | Cc1c(-c2[nH]c3ccc(C4CCN(C(=O)CN(C)C)CC4)cc3c2C(C)C)nn2ncnc2c1C [Example 453, 1-(4-(2-(7,8-dimethyl-[1,2,4]triazolo [1,5-b]pyridazin-6-yl)-3-isopropyl-1H-indol-5-yl)piperidin-1-yl)-2-(dimethylamino)ethan-1-one] |
| < 0.1 | < 0.1 | 0.1 to 1 | CNCC(=O)N1CCC(c2ccc3[nH]c(-c4cc(C)c5nccn5c4)c(C(C)C)c3c2)CC1 [Example 557, 1-(4-(3-isopropyl-2-(8-methylimidazo[1,2-a]pyridin-6-yl)-1H-indol-5-yl)piperidin-1-yl)-2-(methylamino)ethan-1-one] |

Source: patent US11739098B2 (BRISTOL-MYERS SQUIBB COMPANY, priority 2017, dated 2023)
